Laboratory results as given in paper PMC7125355 (Translational Oncology, 2020).
Like-named read-outs stand apart in the source and are kept apart here.

Legend:
HL60^Flt3-WT = experiment: cells; design: species or system human leukemia lines named per line
THP1^Flt3-WT = experiment: cells; design: species or system human leukemia lines named per line
MOLM-13^Flt3-ITD = experiment: cells; design: species or system human leukemia lines named per line
MV411^Flt3-ITD = experiment: cells; design: species or system human leukemia lines named per line
PDGFRα = PDGFRα (Homo sapiens, UniProt P16234); experiment: FRET-based Z'-Lyte kinase assay, parallel comparison; assay type: biochemical
U937^Flt3-WT = experiment: cells; design: species or system human leukemia lines named per line
KG1^FGFR1OP2-FGFR1 = experiment: cells; design: species or system human leukemia lines named per line
MOLT4^Flt3-WT = experiment: cells; design: species or system human leukemia lines named per line
EOL-1^PDGFRα = experiment: cells; design: species or system human leukemia lines named per line
BaF3-FLT3-D835H = experiment: cells; design: species or system Ba/F3 stable lines
BaF3-tel-FLT3-R834Q = experiment: cells; design: species or system Ba/F3 stable lines
BaF3-FLT3-ITD-N676D = experiment: cells; design: species or system Ba/F3 stable lines
BaF3-FLT3-D835V = experiment: cells; design: species or system Ba/F3 stable lines
BaF3-tel-FLT3-K663Q = experiment: cells; design: species or system Ba/F3 stable lines
BaF3-FLT3-ITD-Y842H = experiment: cells; design: species or system Ba/F3 stable lines
BaF3-FLT3-ITD-D835Y = experiment: cells; design: species or system Ba/F3 stable lines
BaF3-FLT3-MOLM-ITD = experiment: cells; design: species or system Ba/F3 stable lines
BaF3-tel-FLT3-D835Y = experiment: cells; design: species or system Ba/F3 stable lines
MEG01^Flt-WT = experiment: cells; design: species or system human leukemia lines named per line; conditions: read-out: Quizaritinib (AC220); 72 h proliferation, mean ± SD; inhibitor
NB4^Flt3-WT = experiment: cells; design: species or system human leukemia lines named per line; conditions: read-out: Quizaritinib (AC220); 72 h proliferation, mean ± SD; inhibitor
BaF3-FLT3-ITD-Y842R = experiment: cells; design: species or system Ba/F3 stable lines; conditions: read-out: Quizartinib / (AC220); 72 h proliferation; inhibitor
BaF3-FLT3-ITD-D835G = experiment: cells; design: species or system Ba/F3 stable lines; conditions: read-out: Quizartinib / (AC220); 72 h proliferation; inhibitor
BaF3-tel-FLT3 = experiment: cells; design: species or system Ba/F3 stable lines; conditions: read-out: Quizartinib / (AC220); 72 h proliferation; inhibitor
BaF3-FLT3-ITD-G697R = experiment: cells; design: species or system Ba/F3 stable lines; conditions: read-out: Quizartinib / (AC220); 72 h proliferation; inhibitor
BaF3-FLT3-ITD-F691I = experiment: cells; design: species or system Ba/F3 stable lines; conditions: read-out: Quizartinib / (AC220); 72 h proliferation; inhibitor
BaF3-FLT3-ITD-D835I = experiment: cells; design: species or system Ba/F3 stable lines; conditions: read-out: Quizartinib / (AC220); 72 h proliferation; inhibitor
BaF3-Tel-FLT3-ITD = experiment: cells; design: species or system Ba/F3 stable lines; conditions: read-out: Quizartinib / (AC220); 72 h proliferation; inhibitor
BaF3-FLT3-ITD-D835V = experiment: cells; design: species or system Ba/F3 stable lines; conditions: read-out: Quizartinib / (AC220); 72 h proliferation; inhibitor
BaF3-FLT3-ITD-D835N = experiment: cells; design: species or system Ba/F3 stable lines; conditions: read-out: Quizartinib / (AC220); 72 h proliferation; inhibitor
[1] = 72 h, read-out: Gilteritinib (ASP2215)
[2] = 72 h, read-out: GZD824 (HQP1351)
[3] = Mus musculus, BaF3, 72 h, read-out: GZD824
[4] = Mus musculus, BaF3, 72 h, read-out: Midostaurin / (PKC412)
[5] = read-out: Quizaritinib (AC220), 72 h proliferation, mean ± SD, inhibitor
[6] = read-out: Quizartinib / (AC220), 72 h proliferation, inhibitor

Sequence of PDGFRα (P16234 24-1089): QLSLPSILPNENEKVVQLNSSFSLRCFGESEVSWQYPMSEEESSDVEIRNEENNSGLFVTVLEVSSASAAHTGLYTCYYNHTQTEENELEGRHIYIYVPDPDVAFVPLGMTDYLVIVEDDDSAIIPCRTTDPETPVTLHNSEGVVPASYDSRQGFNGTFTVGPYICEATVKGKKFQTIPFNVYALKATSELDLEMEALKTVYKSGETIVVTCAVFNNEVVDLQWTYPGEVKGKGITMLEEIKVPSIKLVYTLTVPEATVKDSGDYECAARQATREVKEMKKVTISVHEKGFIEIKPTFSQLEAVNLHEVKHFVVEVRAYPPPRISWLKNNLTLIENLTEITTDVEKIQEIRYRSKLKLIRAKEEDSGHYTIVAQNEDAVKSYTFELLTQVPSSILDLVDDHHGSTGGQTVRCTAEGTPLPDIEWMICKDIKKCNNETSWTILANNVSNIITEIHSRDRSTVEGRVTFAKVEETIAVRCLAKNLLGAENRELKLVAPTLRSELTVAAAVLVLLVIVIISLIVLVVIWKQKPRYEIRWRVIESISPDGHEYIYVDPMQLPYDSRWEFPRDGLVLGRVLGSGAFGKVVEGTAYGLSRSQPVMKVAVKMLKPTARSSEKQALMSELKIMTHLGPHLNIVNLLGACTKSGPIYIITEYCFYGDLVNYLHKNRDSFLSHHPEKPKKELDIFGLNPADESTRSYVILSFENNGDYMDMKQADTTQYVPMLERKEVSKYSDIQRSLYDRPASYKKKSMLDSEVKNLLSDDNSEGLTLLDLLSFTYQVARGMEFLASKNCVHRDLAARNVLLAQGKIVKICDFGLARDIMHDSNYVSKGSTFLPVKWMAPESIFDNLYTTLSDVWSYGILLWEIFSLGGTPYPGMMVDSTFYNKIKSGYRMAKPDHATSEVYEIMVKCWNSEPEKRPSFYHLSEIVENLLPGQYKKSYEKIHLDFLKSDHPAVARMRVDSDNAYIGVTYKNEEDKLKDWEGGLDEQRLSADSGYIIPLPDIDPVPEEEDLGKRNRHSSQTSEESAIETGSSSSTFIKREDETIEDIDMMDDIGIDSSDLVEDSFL

CCc1nc(C(N)=O)c(Nc2ccc(N3CCC(N4CCN(C)CC4)CC3)c(OC)c2)nc1NC1CCOCC1 [gilteritinib]
IC50 (HL60^Flt3-WT; [1]): 689 ± 398 nM | IC50 (THP1^Flt3-WT; [1]): > 1000 nM | IC50 (MOLM-13^Flt3-ITD; [1]): 9.35 ± 2.23 nM | IC50 (MV411^Flt3-ITD; [1]): 3.34 ± 0.91 nM | IC50 (PDGFRα): 148 ± 7.78 nM

Cc1ccc(C(=O)Nc2ccc(CN3CCN(C)CC3)c(C(F)(F)F)c2)cc1C#Cc1cnc2[nH]ncc2c1 [GZD824]
IC50 (HL60^Flt3-WT; [2]): 922 ± 210 nM | IC50 (U937^Flt3-WT; [2]): 1170 ± 105 nM | IC50 (KG1^FGFR1OP2-FGFR1; [2]): 3.66 ± 1.93 nM | IC50 (MOLT4^Flt3-WT; [2]): 246 ± 139 nM | IC50 (EOL-1^PDGFRα; [2]): 7.56 ± 2.73 nM | IC50 (BaF3-FLT3-D835H; [3]): 17.6 nM | IC50 (BaF3-tel-FLT3-R834Q; [3]): 76.2 nM | IC50 (BaF3-FLT3-ITD-N676D; [3]): 7.2 nM | IC50 (BaF3-FLT3-D835V; [3]): 34.7 nM | IC50 (BaF3-tel-FLT3-K663Q; [3]): 853 nM | IC50 (BaF3-FLT3-ITD-Y842H; [3]): 3.2 nM | IC50 (BaF3-FLT3-ITD-D835Y; [3]): 35.7 nM | IC50 (BaF3-FLT3-MOLM-ITD; [3]): 0.8 nM | IC50 (BaF3-tel-FLT3-D835Y; [3]): 5.7 nM

CO[C@@H]1[C@H](N(C)C(=O)c2ccccc2)C[C@H]2O[C@]1(C)n1c3ccccc3c3c4c(c5c6ccccc6n2c5c31)C(=O)NC4 [Midostaurin]
IC50 (BaF3-tel-FLT3-R834Q; [4]): 63.1 nM | IC50 (BaF3-FLT3-ITD-N676D; [4]): 62.4 nM

CC(C)(C)c1cc(NC(=O)Nc2ccc(-c3cn4c(n3)sc3cc(OCCN5CCOCC5)ccc34)cc2)no1 [quizartinib]
IC50 (HL60^Flt3-WT; [5]): 1170 ± 72.1 nM | IC50 (MEG01^Flt-WT): 3310 ± 1560 nM | IC50 (THP1^Flt3-WT; [5]): > 1000 nM | IC50 (MOLM-13^Flt3-ITD; [5]): 5.67 ± 9.29 nM | IC50 (NB4^Flt3-WT): 1990 ± 890 nM | IC50 (MV411^Flt3-ITD; [5]): 1.07 ± 0.32 nM | IC50 (U937^Flt3-WT; [5]): 1430 ± 246 nM | IC50 (KG1^FGFR1OP2-FGFR1; [5]): 1020 ± 572 nM | IC50 (MOLT4^Flt3-WT; [5]): 1950 ± 1750 nM | IC50 (EOL-1^PDGFRα; [5]): 1510 ± 451 nM | IC50 (BaF3-FLT3-D835H; [6]): 4 nM | IC50 (BaF3-tel-FLT3-R834Q; [6]): > 1000 nM | IC50 (BaF3-FLT3-ITD-Y842R): 7.2 nM | IC50 (BaF3-FLT3-ITD-N676D; [6]): 8.3 nM | IC50 (BaF3-FLT3-D835V; [6]): 40.2 nM | IC50 (BaF3-FLT3-ITD-D835G): 4.3 nM | IC50 (BaF3-tel-FLT3): 3.1 nM | IC50 (BaF3-FLT3-ITD-G697R): 22.8 nM | IC50 (BaF3-tel-FLT3-K663Q; [6]): > 1000 nM | IC50 (BaF3-FLT3-ITD-Y842H; [6]): 5.3 nM | IC50 (BaF3-FLT3-ITD-F691I): 95 nM | IC50 (BaF3-FLT3-ITD-D835Y; [6]): 35.5 nM | IC50 (BaF3-FLT3-MOLM-ITD; [6]): 0.8 nM | IC50 (BaF3-tel-FLT3-D835Y; [6]): 2.4 nM | IC50 (BaF3-FLT3-ITD-D835I): 183 nM | IC50 (BaF3-Tel-FLT3-ITD): 2 nM | IC50 (BaF3-FLT3-ITD-D835V): 126 nM | IC50 (BaF3-FLT3-ITD-D835N): 1.6 nM
